Assay results from EP0923292B1, “IMPROVED METHOD FOR SYSTEMIC ADMINISTRATION OF 2,4-DIENOIC ACID-TYPE INSECTICIDES TO TERRESTRIAL MAMMALS” (priority 1996, dated 1998).
Like-named read-outs stand apart in the source and are kept apart here.

Assays:
adult cat fleas = experiment: Flea ovicidal activity in vitro: artificial feeding system with treated beef blood (Examples 4 and 6); set-up: species or system C. felis; details: Ctenocephalides felis; for inhibition at 0.05 ppm: 0.05 ppm in beef blood; for inhibition at 0.075 ppm: 0.075 ppm in beef blood; for inhibition at 0.1 ppm: 0.1 ppm in beef blood; for inhibition at 0.25 ppm: 0.25 ppm in beef blood; for inhibition at 0.5 ppm: 0.5 ppm in beef blood
From the text: For the in vitro tests, an artificial feeding system with cages for adult cat fleas C. felis was used as described by Wade, S.E., et al., J. Med. Ent. 25(3): 186-190 (May 1988). Inside each cage were placed 100 one-week-old, unfed adult C. fells. Each cage included a container for treated blood separated from the fleas by a PARAFILM® membrane, and a compartment containing thin strips of paper to support loosely arranged clean dog hair and to provide a foothold for the fleas as they fed on the blood through the membrane.
The artificial feeding system and cages for adult cat fleas described in Example 3 were used. Beef blood was used for the feeding system, and was prepared by adding 35 mL of a 20% sodium citrate solution per liter of blood to prevent clotting. A stock solution of lufenuron was prepared by adding 50.1 mg of technical lufenuron to 4.951 g of dimethyl sulfoxide (DMSO) to yield a 1.0% solution. A 1,000 ppm solution was then prepared by diluting 1.0 mL of the 1.0% solution in 9.0 mL of DMSO, and a 100 ppm solution was prepared by diluting 1.0 mL of the 1,000 ppm solution in 9.0 mL of DMSO. Dimethyl sulfoxide itself was used as a control. To treat the blood, the various solutions (0.05 mL) were added to the citrated beef blood (100.0 mL) to yield beef blood solutions containing 5.0 ppm, 0.5 ppm, 0.05 ppm, and 0.00 (zero) ppm lufenuron. Each solution was mixed thoroughly, and 10 mL at each concentration were placed in each of five feeders in the artificial feeding system to serve as replicates. Each day fresh blood solutions identical to the originals were placed in the feeders.
Flea eggs were collected from each replicate on days 3, 5 and 7. One hundred (100) healthy appearing […] were counted under a dissecting microscope from each replicate, divided into two subsamples per replicate, and placed in 60 mm x 15 mm plastic petri dishes. The samples were incubated at 78°F and 85% relative humidity for three days, then scored for larval hatch using by visual observation through the dissecting microscope. The data from all replicates at each concentration were combined to yield the mean percent egg hatch, and the percent inhibition of egg hatch was calculated relative to the control.
Retuming to (S)-methoprene, this example presents in vitro flea ovicidal activity using beef blood, for comparison with Example 4. Procedures using beef blood were the same as those indicated in the previous examples.

[1] = Concentration of (S)-methoprene in dog blood following oral administration (HPLC); type: in vivo, dogs; details: random-bred, whole blood, 50 mg/kg
From the text: Twelve random-bred adult dogs of various sex and medium hair coat were selected based on hair coat, health, and individual habits. The twelve dogs were grouped into two groups of six dogs each. Dog weights ranged from 22.5 kg to 35.0 kg, and the various weights and each sex were represented in each group. The dogs received a measured amount of Science Diet maintenance dog food daily and water was available. The two groups of dogs were housed separately. The dogs of Group 1 were not given any treatments, whereas those of Group 2 were each given 50 mg/kg of technical (S)-methoprene one time only at the start of the study (Day 0).
Blood samples were taken periodically by drawing the samples into 10 cc disposable syringes and transferring them to labeled 5 mL heparinized EDTA vacutainers treated with […] of paraoxon solution at a concentration of 1 x 10^-2 M. The blood samples were frozen until ready for analysis. Hair samples were clipped from the dogs on the same days that blood samples were taken, then placed in labeled freezer jars with aluminum foil seals, and frozen.
To analyze the blood samples, the samples were extracted three times with methyl t-butyl ether, evaporated, reconstituted in 1 mL of methanol, and analyzed by HPLC as in the hair analyses.

[2] = (S)-Methoprene concentration in rat blood upon in vivo administration (radioassay/TLC); details: average of three animals
[3] = average over days, read-out: Percent Inhibition of Flea Egg Hatching, averages
[4] = 72 h, day 3, read-out: Percent Inhibition of Flea Egg Hatching
[5] = 120 h, day 5, read-out: Percent Inhibition of Flea Egg Hatching
[6] = 144 h, day 6, read-out: Percent Inhibition of Flea Egg Hatching
[7] = 240 h, day 10, read-out: Percent Inhibition of Flea Egg Hatching

## COC(C)(C)CCC[C@H](C)C/C=C/C(C)=C/C(=O)OC(C)C [(S)-Methoprene, 1-isopropyl (E,E)-11-methoxy-3,7,11-trimethyl dodecadi-2,4-enoate]
Adult cat fleas; [3]
  inhibition at 0.05 ppm: 56.4%
  inhibition at 0.1 ppm: 96.6%
  inhibition at 0.25 ppm: 99.5%
  inhibition at 0.5 ppm: 99.8%
Adult cat fleas; average of a and b, read-out: Percent Inhibition of Flea Egg Hatching, averages
  inhibition at 0.075 ppm: 72%
Adult cat fleas; [4]
  inhibition at 0.05 ppm: 47.3%
  inhibition at 0.5 ppm: 99.1%
Adult cat fleas; [5]
  inhibition at 0.1 ppm: 97.4%
  inhibition at 0.25 ppm: 100%
Adult cat fleas; [6]
  inhibition at 0.1 ppm: 95.7%
  inhibition at 0.25 ppm: 99%
Adult cat fleas; 168 h, day 7, read-out: Percent Inhibition of Flea Egg Hatching
  inhibition at 0.5 ppm: 100%
Adult cat fleas; 192 h, day 8, entry a, read-out: Percent Inhibition of Flea Egg Hatching
  inhibition at 0.075 ppm: 66%
Adult cat fleas; 192 h, day 8, entry b, read-out: Percent Inhibition of Flea Egg Hatching
  inhibition at 0.075 ppm: 78%
Adult cat fleas; [7]
  inhibition at 0.05 ppm: 65.4%
  inhibition at 0.5 ppm: 100%
Adult cat fleas; 312 h, day 13, read-out: Percent Inhibition of Flea Egg Hatching
  inhibition at 0.5 ppm: 100%
[1]; Dog #60, oral 50 mg/kg one time on Day 0, day 1
  concentration at 1 day: 117 ng/g
[1]; Dog #60, oral 50 mg/kg one time on Day 0, day 3
  concentration at 3 day: 36 ng/g
[1]; Dog #98, oral 50 mg/kg one time on Day 0, day 1
  concentration at 1 day: 97.2 ng/g
[1]; Dog #528, oral 50 mg/kg one time on Day 0, day 1
  concentration at 1 day: 165 ng/g
[1]; Dog #528, oral 50 mg/kg one time on Day 0, day 3
  concentration at 3 day: 63.6 ng/g
[1]; Dog #529, oral 50 mg/kg one time on Day 0, day 1
  concentration at 1 day: 172 ng/g
[1]; Dog #529, oral 50 mg/kg one time on Day 0, day 3
  concentration at 3 day: 52.1 ng/g
[1]; Dog #529, oral 50 mg/kg one time on Day 0, day 7
  concentration at 7 day: 55.7 ng/g
[1]; Dog #534, oral 50 mg/kg one time on Day 0, day 1
  concentration at 1 day: 146 ng/g
[1]; Dog #534, oral 50 mg/kg one time on Day 0, day 3
  concentration at 3 day: 94.2 ng/g
[1]; Dog #534, oral 50 mg/kg one time on Day 0, day 5
  concentration at 5 day: 66.8 ng/g
[1]; Dog #535, oral 50 mg/kg one time on Day 0, day 1
  concentration at 1 day: 239 ng/g
[1]; Dog #535, oral 50 mg/kg one time on Day 0, day 3
  concentration at 3 day: 93.3 ng/g
[1]; Dog #535, oral 50 mg/kg one time on Day 0, day 5
  concentration at 5 day: 47.7 ng/g
[2]; Group A 10 mg/kg I.V., 0.5 hours
  (S)-Methoprene Concentration in Blood: 0.703 ± 0.307 ppm
[2]; Group A 10 mg/kg I.V., 1 hour
  (S)-Methoprene Concentration in Blood: 0.345 ± 0.107 ppm
[2]; Group A 10 mg/kg I.V., 2 hours
  (S)-Methoprene Concentration in Blood: 0.113 ± 0.028 ppm
[2]; Group A 10 mg/kg I.V., 3 hours
  (S)-Methoprene Concentration in Blood: 0.079 ± 0.002 ppm
[2]; Group A 10 mg/kg I.V., 4 hours
  (S)-Methoprene Concentration in Blood: 0.066 ± 0.028 ppm
[2]; Group A 10 mg/kg I.V., 5 hours
  (S)-Methoprene Concentration in Blood: 0.048 ± 0.001 ppm
[2]; Group A 10 mg/kg I.V., 6 hours
  (S)-Methoprene Concentration in Blood: 0.046 ± 0.027 ppm
[2]; Group A 10 mg/kg I.V., 7 hours
  (S)-Methoprene Concentration in Blood: 0.019 ± 0.008 ppm
[2]; Group B 10 mg/kg oral, 1 hour
  (S)-Methoprene Concentration in Blood: 0.112 ± 0.038 ppm
[2]; Group B 10 mg/kg oral, 2 hours
  (S)-Methoprene Concentration in Blood: 0.264 ± 0.122 ppm
[2]; Group B 10 mg/kg oral, 3 hours
  (S)-Methoprene Concentration in Blood: 0.202 ± 0.065 ppm
[2]; Group B 10 mg/kg oral, 4 hours
  (S)-Methoprene Concentration in Blood: 0.130 ± 0.066 ppm
[2]; Group B 10 mg/kg oral, 5 hours
  (S)-Methoprene Concentration in Blood: 0.052 ± 0.026 ppm
[2]; Group B 10 mg/kg oral, 6 hours
  (S)-Methoprene Concentration in Blood: 0.045 ± 0.014 ppm
[2]; Group B 10 mg/kg oral, 7 hours
  (S)-Methoprene Concentration in Blood: 0.020 ± 0.005 ppm
[2]; Group B 10 mg/kg oral, 8 hours
  (S)-Methoprene Concentration in Blood: 0.021 ± 0.009 ppm
[2]; Group C 100 mg/kg oral, 1 hour
  (S)-Methoprene Concentration in Blood: 0.165 ± 0.070 ppm
[2]; Group C 100 mg/kg oral, 2 hours
  (S)-Methoprene Concentration in Blood: 3.487 ± 1.324 ppm
[2]; Group C 100 mg/kg oral, 3 hours
  (S)-Methoprene Concentration in Blood: 1.302 ± 0.409 ppm
[2]; Group C 100 mg/kg oral, 4 hours
  (S)-Methoprene Concentration in Blood: 1.504 ± 0.533 ppm
[2]; Group C 100 mg/kg oral, 5 hours
  (S)-Methoprene Concentration in Blood: 0.930 ± 0.449 ppm
[2]; Group C 100 mg/kg oral, 6 hours
  (S)-Methoprene Concentration in Blood: 0.527 ± 0.341 ppm
[2]; Group C 100 mg/kg oral, 7 hours
  (S)-Methoprene Concentration in Blood: 0.608 ± 0.292 ppm
[2]; Group C 100 mg/kg oral, 8 hours
  (S)-Methoprene Concentration in Blood: 0.483 ± 0.221 ppm
